Test results from ChEMBL document CHEMBL1201862, “PubChem BioAssay data set” (2004).
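The compound was tested at five concentrations on cells cultured in 96-well plates, with a 48-hour exposure period. GI50: concentration for 50% inhibition of growth.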 Activity calls are given as the source filed them. Cut-off read from the data, not from the text of the source: active = GI50 up to about 1.1 µM and inactive = higher.

Key:
Test in all cases: growth of human tumour cells (NCI), 48 h
ACHN = test system: ACHN
RPMI-8226 = test system: RPMI-8226
SK-MEL-5 = test system: SK-MEL-5
IGROV-1 = test system: IGROV-1
CAKI-1 = test system: CAKI-1
SF-295 = test system: SF-295
KM12 = test system: KM12
OVCAR-8 = test system: OVCAR-8
SW-620 = test system: SW-620
SR = test system: SR
HL-60 = test system: HL-60
MOLT-4 = test system: MOLT-4
NCI-H23 = test system: NCI-H23
SF-268 = test system: SF-268
SF-539 = test system: SF-539
SN12C = test system: SN12C
RXF 631 = test system: RXF 631
LXFL 529 = test system: LXFL 529
786-0 = test system: 786-0
DMS-114 = test system: DMS-114
UACC-62 = test system: UACC-62
HCT-15 = test system: HCT-15
LOX IMVI = test system: LOX IMVI
K562 = test system: K562
DMS-273 = test system: DMS-273
NCI-H226 = test system: NCI-H226
HCC 2998 = test system: HCC 2998
EKVX = test system: EKVX
SK-MEL-2 = test system: SK-MEL-2
Malme-3M = test system: Malme-3M
NCI-H522 = test system: NCI-H522
DLD-1 = test system: DLD-1
M19-MEL = test system: M19-MEL
KM-20L2 = test system: KM-20L2
XF498 = test system: XF498
SNB-19 = test system: SNB-19
U-251 = test system: U-251
UO-31 = test system: UO-31
COLO 205 = test system: COLO 205
TK-10 = test system: TK-10
OVCAR-4 = test system: OVCAR-4
CCRF-CEM = test system: CCRF-CEM
SNB-75 = test system: SNB-75
UACC-257 = test system: UACC-257
A549 = test system: A549
HCT-116 = test system: HCT-116
HOP-62 = test system: HOP-62
OVCAR-3 = test system: OVCAR-3
SNB-78 = test system: SNB-78
OVCAR-5 = test system: OVCAR-5
HOP-92 = test system: HOP-92
SK-MEL-28 = test system: SK-MEL-28
NCI-H460 = test system: NCI-H460
M14 = test system: M14
HT-29 = test system: HT-29
RXF 393 = test system: RXF 393

## O=C1c2ccccc2C(=O)N1C/C=N/NS(=O)(=O)c1ccc(F)cc1
ACHN
  GI50: > 100 µM (inactive)
RPMI-8226
  GI50: > 100 µM (inactive)
SK-MEL-5
  GI50: > 100 µM (inactive)
IGROV-1
  GI50: > 100 µM (inactive)
CAKI-1
  GI50: > 100 µM (inactive)
SF-295
  GI50: > 100 µM (inactive)
KM12
  GI50: > 100 µM (inactive)
OVCAR-8
  GI50: > 100 µM (inactive)
SW-620
  GI50: > 100 µM (inactive)
SR
  GI50: > 100 µM (inactive)
HL-60
  GI50: > 100 µM (inactive)
MOLT-4
  GI50: > 100 µM (inactive)
NCI-H23
  GI50: > 100 µM (inactive)
SF-268
  GI50: > 100 µM (inactive)
SF-539
  GI50: > 100 µM (inactive)
SN12C
  GI50: > 100 µM (inactive)
RXF 631
  GI50: > 100 µM (inactive)
LXFL 529
  GI50: > 100 µM (inactive)
786-0
  GI50: > 100 µM (inactive)
DMS-114
  GI50: > 100 µM (inactive)
UACC-62
  GI50: > 100 µM (inactive)
HCT-15
  GI50: > 100 µM
LOX IMVI
  GI50: > 100 µM (inactive)
K562
  GI50: > 100 µM (inactive)
DMS-273
  GI50: > 100 µM (inactive)
NCI-H226
  GI50: > 100 µM (inactive)
HCC 2998
  GI50: > 100 µM (inactive)
EKVX
  GI50: > 100 µM (inactive)
SK-MEL-2
  GI50: > 100 µM (inactive)
Malme-3M
  GI50: > 100 µM (inactive)
NCI-H522
  GI50: > 100 µM (inactive)
DLD-1
  GI50: > 100 µM (inactive)
M19-MEL
  GI50: > 100 µM (inactive)
KM-20L2
  GI50: > 100 µM (inactive)
XF498
  GI50: > 100 µM (inactive)
SNB-19
  GI50: > 100 µM (inactive)
U-251
  GI50: > 100 µM (inactive)
UO-31
  GI50: > 100 µM (inactive)
COLO 205
  GI50: > 100 µM (inactive)
TK-10
  GI50: > 100 µM (inactive)
OVCAR-4
  GI50: > 100 µM (inactive)
CCRF-CEM
  GI50: > 100 µM (inactive)
SNB-75
  GI50: 59 µM (inactive)
UACC-257
  GI50: > 100 µM (inactive)
A549
  GI50: > 100 µM (inactive)
HCT-116
  GI50: > 100 µM (inactive)

## O=C1CCC(=O)N1CNc1cccc(NCN2C(=O)CCC2=O)c1
HOP-62
  GI50: > 100 µM (inactive)
ACHN
  GI50: 71.4 µM (inactive)
OVCAR-3
  GI50: > 100 µM (inactive)
RPMI-8226
  GI50: 17.3 µM (inactive)
SNB-78
  GI50: > 100 µM (inactive)
OVCAR-5
  GI50: > 100 µM (inactive)
SK-MEL-5
  GI50: > 100 µM (inactive)
IGROV-1
  GI50: 87.9 µM (inactive)
SF-295
  GI50: > 100 µM (inactive)
KM12
  GI50: > 100 µM (inactive)
OVCAR-8
  GI50: > 100 µM (inactive)
SW-620
  GI50: > 100 µM (inactive)
HOP-92
  GI50: > 100 µM (inactive)
HL-60
  GI50: 20.1 µM (inactive)
SK-MEL-28
  GI50: > 100 µM (inactive)
MOLT-4
  GI50: 52.6 µM (inactive)
NCI-H23
  GI50: > 100 µM (inactive)
NCI-H460
  GI50: > 100 µM (inactive)
SF-268
  GI50: 70 µM (inactive)
M14
  GI50: > 100 µM (inactive)
SF-539
  GI50: > 100 µM (inactive)
SN12C
  GI50: > 100 µM (inactive)
RXF 631
  GI50: > 100 µM (inactive)
LXFL 529
  GI50: 56.8 µM (inactive)
786-0
  GI50: > 100 µM (inactive)
HT-29
  GI50: > 100 µM (inactive)
UACC-62
  GI50: 48.5 µM (inactive)
HCT-15
  GI50: 61 µM
K562
  GI50: 45.6 µM (inactive)
DMS-273
  GI50: 61.1 µM (inactive)
HCC 2998
  GI50: > 100 µM (inactive)
EKVX
  GI50: > 100 µM (inactive)
SK-MEL-2
  GI50: > 100 µM (inactive)
Malme-3M
  GI50: > 100 µM (inactive)
NCI-H522
  GI50: > 100 µM (inactive)
DLD-1
  GI50: > 100 µM (inactive)
M19-MEL
  GI50: > 100 µM (inactive)
KM-20L2
  GI50: 11 µM (inactive)
XF498
  GI50: > 100 µM (inactive)
SNB-19
  GI50: > 100 µM (inactive)
U-251
  GI50: > 100 µM (inactive)
UO-31
  GI50: > 100 µM (inactive)
COLO 205
  GI50: > 100 µM (inactive)
TK-10
  GI50: > 100 µM (inactive)
OVCAR-4
  GI50: > 100 µM (inactive)
CCRF-CEM
  GI50: 29.6 µM (inactive)
SNB-75
  GI50: 12.9 µM (inactive)
UACC-257
  GI50: 71.6 µM (inactive)
RXF 393
  GI50: > 100 µM (inactive)
A549
  GI50: > 100 µM (inactive)
HCT-116
  GI50: 64.3 µM (inactive)
